In ChEMBL document CHEMBL1146736, “Simple aromatic compounds containing propenone moiety show considerable dual COX/5-LOX inhibitory activities” (Bioorg Med Chem Lett, 2004):

biological target: T1, Prostaglandin G/H synthase 2 (Mus musculus, UniProt Q05769); assay: Inhibitory activity against cyclooxygenase-2 in micc
T1 sequence (Q05769 whole entry): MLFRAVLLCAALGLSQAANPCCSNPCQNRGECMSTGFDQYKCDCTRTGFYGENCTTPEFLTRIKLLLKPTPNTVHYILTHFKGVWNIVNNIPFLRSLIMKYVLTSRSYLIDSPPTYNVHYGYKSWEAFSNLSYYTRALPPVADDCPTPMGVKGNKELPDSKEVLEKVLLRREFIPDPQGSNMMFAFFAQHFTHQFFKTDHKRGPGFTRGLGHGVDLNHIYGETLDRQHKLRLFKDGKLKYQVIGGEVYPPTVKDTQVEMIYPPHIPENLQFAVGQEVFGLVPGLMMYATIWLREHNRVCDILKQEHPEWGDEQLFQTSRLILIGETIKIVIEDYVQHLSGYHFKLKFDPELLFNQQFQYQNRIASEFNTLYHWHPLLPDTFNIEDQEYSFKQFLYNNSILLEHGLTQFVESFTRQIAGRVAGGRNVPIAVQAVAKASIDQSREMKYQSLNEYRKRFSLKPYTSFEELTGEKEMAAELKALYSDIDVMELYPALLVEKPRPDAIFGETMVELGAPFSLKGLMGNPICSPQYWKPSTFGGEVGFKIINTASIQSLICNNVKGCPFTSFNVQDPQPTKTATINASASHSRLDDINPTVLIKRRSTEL

| IC50 | SMILES |
| --- | --- |
| 12 µM | O=C(/C=C/c1ccoc1)c1ccccn1 |

biological target: T2, Prostaglandin G/H synthase 1 (Mus musculus, UniProt P22437); assay: Inhibitory activity against murine prostaglandin G/H synthase 1.
T2 sequence (P22437 whole entry): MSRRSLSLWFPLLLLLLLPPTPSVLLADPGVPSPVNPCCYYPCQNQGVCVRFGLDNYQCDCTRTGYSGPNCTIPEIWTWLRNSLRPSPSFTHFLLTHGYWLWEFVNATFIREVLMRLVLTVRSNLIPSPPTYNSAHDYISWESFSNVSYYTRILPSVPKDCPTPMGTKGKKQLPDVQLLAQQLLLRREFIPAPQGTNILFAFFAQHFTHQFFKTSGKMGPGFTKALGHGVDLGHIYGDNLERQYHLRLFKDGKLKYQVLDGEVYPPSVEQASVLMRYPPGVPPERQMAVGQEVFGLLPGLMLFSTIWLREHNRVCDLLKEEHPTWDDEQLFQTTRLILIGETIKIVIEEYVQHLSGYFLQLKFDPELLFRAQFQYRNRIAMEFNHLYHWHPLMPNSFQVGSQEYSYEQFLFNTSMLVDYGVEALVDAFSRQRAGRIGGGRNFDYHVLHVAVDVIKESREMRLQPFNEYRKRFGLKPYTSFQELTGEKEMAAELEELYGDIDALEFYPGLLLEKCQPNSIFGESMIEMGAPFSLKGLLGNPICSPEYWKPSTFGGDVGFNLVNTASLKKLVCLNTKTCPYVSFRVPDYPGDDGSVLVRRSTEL

| SMILES | IC50 |
| --- | --- |
| O=C(/C=C/c1ccsc1)c1cccs1 | 59.9 µM |
| O=C(/C=C/c1ccco1)c1ccco1 | 80.7 µM |
| O=C(/C=C/c1cccs1)c1ccccc1 | 46.2 µM |
| O=C(/C=C/c1ccoc1)c1cccnc1 | 21 µM |
| O=C(/C=C/c1ccsc1)c1cccnc1 | 13 µM |
| O=C(/C=C/c1ccccn1)c1ccco1 | 65.3 µM |
| O=C(/C=C/c1ccco1)c1ccc(Cl)s1 | 57.4 µM |
| O=C(/C=C/c1ccco1)c1cccs1 | 60.7 µM |
| O=C(/C=C/c1cccs1)c1cccs1 | 9.01 µM |
| CS(=O)(=O)Nc1ccc([N+](=O)[O-])cc1OC1CCCCC1 [NS-398] | 1.67 µM |

The remaining lines, values ahead:

| IC50 | SMILES |
| --- | --- |
| 32.5 µM | O=C(/C=C/c1ccccc1)c1ccccn1 |
| 23.6 µM | O=C(/C=C/c1ccco1)c1ccccn1 |
| 23.6 µM | O=C(/C=C/c1ccoc1)c1ccccn1 |
| 40.1 µM | Cc1ccsc1/C=C/C(=O)c1ccccn1 |
| 13 µM | O=C(/C=C/c1ccsc1)c1ccccn1 |
| 22.1 µM | O=C(/C=C/c1ccccc1)c1ccccc1 [CHALCONE] |

biological target: T3, Polyunsaturated fatty acid 5-lipoxygenase (Mus musculus, UniProt P48999); assay: Inhibitory activity against murine […].
T3 sequence (P48999 whole entry): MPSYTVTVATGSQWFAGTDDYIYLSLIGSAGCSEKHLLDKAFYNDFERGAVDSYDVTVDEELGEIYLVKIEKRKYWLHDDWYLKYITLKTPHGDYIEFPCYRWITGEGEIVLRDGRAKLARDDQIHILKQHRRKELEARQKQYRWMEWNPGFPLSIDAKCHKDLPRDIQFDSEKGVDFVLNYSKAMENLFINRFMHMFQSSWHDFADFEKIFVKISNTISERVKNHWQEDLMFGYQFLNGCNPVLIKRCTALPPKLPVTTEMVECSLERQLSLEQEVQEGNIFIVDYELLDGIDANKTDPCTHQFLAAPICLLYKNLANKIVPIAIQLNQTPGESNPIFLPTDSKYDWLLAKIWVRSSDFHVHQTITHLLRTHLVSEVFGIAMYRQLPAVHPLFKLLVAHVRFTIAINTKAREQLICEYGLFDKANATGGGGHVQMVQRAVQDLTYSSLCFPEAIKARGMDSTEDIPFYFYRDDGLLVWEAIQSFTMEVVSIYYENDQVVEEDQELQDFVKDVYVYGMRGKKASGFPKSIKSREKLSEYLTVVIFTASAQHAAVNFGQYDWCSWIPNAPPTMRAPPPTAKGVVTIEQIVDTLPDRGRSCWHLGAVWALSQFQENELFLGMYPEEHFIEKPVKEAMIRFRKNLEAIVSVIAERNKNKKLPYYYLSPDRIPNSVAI

| SMILES | IC50 |
| --- | --- |
| O=C(/C=C/c1ccco1)c1cccnc1 | 12 µM |
| O=C(/C=C/c1ccsc1)c1cccs1 | 5.9 µM |
| O=C(/C=C/c1ccco1)c1ccco1 | 12.8 µM |
| O=C(/C=C/c1cccs1)c1ccccc1 | 9.5 µM |
| O=C(/C=C/c1ccoc1)c1cccnc1 | 13.4 µM |
| O=C(/C=C/c1ccccn1)c1ccco1 | 0.37 µM |
| O=C(/C=C/c1ccco1)c1ccc(Cl)s1 | 7.52 µM |
| O=C(/C=C/c1ccco1)c1cccs1 | 14 µM |
| O=C(/C=C/c1cccs1)c1cccs1 | 4.8 µM |
| CC1=C(C)C(=O)C(CCCCC#CCCCC#CCO)=C(C)C1=O [DOCEBENONE] | 0.032 µM |

Further lines, results first:

| IC50 | SMILES |
| --- | --- |
| 8.13 µM | O=C(/C=C/c1ccccc1)c1ccccn1 |
| 13.5 µM | O=C(/C=C/c1ccco1)c1ccccn1 |
| 13.8 µM | O=C(/C=C/c1ccoc1)c1ccccn1 |
| 6.51 µM | Cc1ccsc1/C=C/C(=O)c1ccccn1 |
| 7.6 µM | O=C(/C=C/c1ccsc1)c1ccccn1 |
| 12.2 µM | O=C(/C=C/c1ccccc1)c1ccccc1 [CHALCONE] |

biological target: T1, Prostaglandin G/H synthase 2; assay: Inhibitory activity against murine Prostaglandin G/H synthase 2.

| SMILES | IC50 |
| --- | --- |
| O=C(/C=C/c1ccco1)c1cccnc1 | 12 µM |
| O=C(/C=C/c1ccsc1)c1cccs1 | 26.7 µM |
| O=C(/C=C/c1ccco1)c1ccco1 | 29 µM |
| O=C(/C=C/c1cccs1)c1ccccc1 | 9.02 µM |
| O=C(/C=C/c1ccoc1)c1cccnc1 | 7.92 µM |
| O=C(/C=C/c1ccsc1)c1cccnc1 | 18.4 µM |
| O=C(/C=C/c1ccccn1)c1ccco1 | 1.89 µM |
| O=C(/C=C/c1ccco1)c1ccc(Cl)s1 | 14.1 µM |
| O=C(/C=C/c1ccco1)c1cccs1 | 13.7 µM |
| O=C(/C=C/c1cccs1)c1cccs1 | 3.4 µM |

Results, then the molecule that gave them:

| IC50 | SMILES |
| --- | --- |
| 28.7 µM | O=C(/C=C/c1ccccc1)c1ccccn1 |
| 7.44 µM | O=C(/C=C/c1ccco1)c1ccccn1 |
| 23.4 µM | Cc1ccsc1/C=C/C(=O)c1ccccn1 |
| 5.22 µM | O=C(/C=C/c1ccsc1)c1ccccn1 |
| 11.2 µM | O=C(/C=C/c1ccccc1)c1ccccc1 [CHALCONE] |

biological target: T2, Prostaglandin G/H synthase 1; assay: Inhibitory activity against Prostaglandin G/H synthase 1 in mice

| IC50 | SMILES |
| --- | --- |
| 59.7 µM | O=C(/C=C/c1ccco1)c1cccnc1 |

biological target: T3, Polyunsaturated fatty acid 5-lipoxygenase; assay: Inhibitory activity against […] in mice

| IC50 | SMILES |
| --- | --- |
| 10 µM | O=C(/C=C/c1ccsc1)c1cccnc1 |
